Reference: patent US7473702B2, “Substituted gamma lactams as therapeutic agents” (Allergan, Inc., priority 2005, dated 2009)
pEC50, pKi: −log10 of the molar value.

Legend:
[1] = target: T1, EP2 (Homo sapiens, UniProt P43116); assay: EP2 cAMP EC50; format: cell-based
Excerpt: (§1) U.S. patent application Ser. No. 11/553,143, filed on Oct. 26, 2006, incorporated by reference herein, describes the methods used to obtain the in vitro data in the table below.

[2] = target: T1, EP2; assay: EP2 binding Ki
Excerpt: as §1

[3] = target: T2, hEP3A (Homo sapiens, UniProt P43115); assay: Other receptors functional EC50, hEP3A; format: cell-based
T2 sequence (P43115 1-390): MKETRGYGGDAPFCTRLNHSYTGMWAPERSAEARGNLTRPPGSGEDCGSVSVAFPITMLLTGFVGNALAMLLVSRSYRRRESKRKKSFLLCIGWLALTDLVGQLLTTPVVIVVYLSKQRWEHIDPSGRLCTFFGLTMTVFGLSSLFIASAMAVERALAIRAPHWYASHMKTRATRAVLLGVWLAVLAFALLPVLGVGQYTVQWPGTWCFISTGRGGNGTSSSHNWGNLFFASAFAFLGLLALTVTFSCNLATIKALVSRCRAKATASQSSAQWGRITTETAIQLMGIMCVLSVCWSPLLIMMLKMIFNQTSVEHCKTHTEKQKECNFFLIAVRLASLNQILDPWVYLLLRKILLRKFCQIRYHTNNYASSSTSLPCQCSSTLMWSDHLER
Excerpt: as §1

[4] = target: T3, hTP (Homo sapiens, UniProt P21731); assay: Other receptors functional EC50, hTP; format: cell-based
T3 sequence (P21731 1-343): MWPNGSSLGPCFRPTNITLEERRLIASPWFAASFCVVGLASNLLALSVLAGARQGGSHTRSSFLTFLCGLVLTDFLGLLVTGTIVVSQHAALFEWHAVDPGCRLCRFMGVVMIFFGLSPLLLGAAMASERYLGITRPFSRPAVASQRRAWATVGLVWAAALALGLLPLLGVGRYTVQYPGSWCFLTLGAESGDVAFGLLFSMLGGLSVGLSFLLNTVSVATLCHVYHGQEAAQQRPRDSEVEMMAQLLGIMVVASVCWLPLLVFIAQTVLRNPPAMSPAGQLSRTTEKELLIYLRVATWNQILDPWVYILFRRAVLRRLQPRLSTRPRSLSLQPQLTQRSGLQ
Excerpt: as §1

[5] = target: T4, hDP (Homo sapiens, UniProt Q13258); assay: Other receptors functional EC50, hDP; format: cell-based
T4 sequence (Q13258 1-359): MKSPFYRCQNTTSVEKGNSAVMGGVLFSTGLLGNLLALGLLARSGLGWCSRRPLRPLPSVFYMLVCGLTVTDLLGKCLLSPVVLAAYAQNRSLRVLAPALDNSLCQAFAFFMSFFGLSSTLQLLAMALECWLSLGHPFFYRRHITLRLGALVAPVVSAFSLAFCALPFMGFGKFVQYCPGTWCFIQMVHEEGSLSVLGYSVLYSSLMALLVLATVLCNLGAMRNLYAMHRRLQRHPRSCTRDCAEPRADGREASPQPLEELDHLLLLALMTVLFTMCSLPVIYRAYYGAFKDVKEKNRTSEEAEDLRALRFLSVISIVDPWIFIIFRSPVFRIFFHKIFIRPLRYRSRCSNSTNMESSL
Excerpt: as §1

[6] = target: T1, EP2; assay: EP2 flipr EC50; format: cell-based
Excerpt: as §1

T1 sequence (P43116 whole entry): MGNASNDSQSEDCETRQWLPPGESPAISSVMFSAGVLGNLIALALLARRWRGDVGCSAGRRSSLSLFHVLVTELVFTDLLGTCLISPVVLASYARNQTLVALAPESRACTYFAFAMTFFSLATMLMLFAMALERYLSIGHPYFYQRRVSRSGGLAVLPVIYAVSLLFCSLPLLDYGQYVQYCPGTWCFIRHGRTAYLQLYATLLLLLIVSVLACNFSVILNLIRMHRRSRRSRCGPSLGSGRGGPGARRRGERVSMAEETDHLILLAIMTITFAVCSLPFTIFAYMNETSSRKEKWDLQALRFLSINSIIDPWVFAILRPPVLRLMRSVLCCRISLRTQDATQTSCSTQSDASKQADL

Row | SMILES | pEC50 [1] | pKi [2] | pEC50 [3] | pEC50 [4] | pEC50 [5] | pEC50 [6]
1 | CCCCCC(O)c1ccc(N2C(=O)CC[C@@H]2C/C=C/c2nc(C(=O)O)cs2)cc1 (stereo partly drawn) | 7.62 | 5.66 | 5.53 | < 5.00 | < 5.00 | –
2 | CCCCC[C@H](O)c1ccc(N2C(=O)CC[C@@H]2/C=C\Cc2ccc(C(=O)O)s2)cc1 | 7.72 | 6.08 | – | – | < 5.00 | 7.64
3 | CCCCC[C@H](O)c1ccc(N2C(=O)CC[C@@H]2C/C=C/c2ccc(C(=O)O)s2)cc1 | 7.14 | 5.85 | 5.68 | – | < 5.00 | –
4 | CCCCCC(O)c1ccc(N2C(=O)CC[C@@H]2C/C=C\c2nc(C(=O)O)cs2)cc1 (stereo partly drawn) | 9.12 | 7.37 | 7.37 | – | 5.73 | 7.77
